Test results as given in publication PMC10974533, “Cationicity Enhancement on the Hydrophilic Face of Ctriporin Significantly Reduces Its Hemolytic Activity and Improves the Antimicrobial Activity against Antibiotic-Resistant ESKAPE Pathogens” (Toxins, 2024).
Where a SMILES comes first, the peptide text is derived from it.

Key:
Assay type in all cases: cell-based
[1] = tested on: S. aureus ATCC29213; test: MIC, broth dilution, standard strain; settings: broth dilution (CLSI), MHB, 37 °C, 16–20 h
Experimental: (§1) The standard strains, including S. aureus ATCC29213 and ATCC25923, E. faecalis ATCC29212, E. coli ATCC25922 and ATCC35218, A. baumannii ATCC19606, K. pneumoniae ATCC700603, and P. aeruginosa ATCC27853, were purchased from the China Center of Type Culture Collection (CCTCC). The clinical strains of the ESKAPE pathogens were isolated from the affiliated hospitals of Hubei University of Medicine. All of them were stored at −80 °C before use. The drug sensitivities of the clinical strains were determined by the Kirby–Bauer test.
(§2) The MICs were determined using the broth dilution method according to the guidelines of the Clinical and Laboratory Standards Institute (CLSI), as described in the previous studies. Briefly, the bacterial cells were incubated in Mueller–Hinton broth (MHB, Oxoid, Basingstoke, UK) at 37 °C and 150 rpm to the mid-growth phase and diluted to achieve a final concentration of 5 × 10^5 colony-forming units per milliliter (CFU/mL). Then, the cells were mixed with each peptide in different concentrations (1, 2, 4, 8, 16, 32, and 64 μg/mL). […] All experiments were repeated at least three times.

[2] = tested on: K. pneumoniae ATCC700603; test: MIC, broth dilution, standard strain; settings: broth dilution (CLSI), MHB, 5 × 10^5 CFU/mL, 37 °C, 16–20 h, OD630, repeated at least three times
Experimental: as §1, §2

[3] = tested on: S. aureus ATCC25923; test: MIC, broth dilution, standard strain; settings: broth dilution (CLSI), MHB, 37 °C, 16–20 h
Experimental: as §1, §2

[4] = tested on: E. coli ATCC25922; test: MIC, broth dilution, standard strain; settings: broth dilution (CLSI), MHB, 37 °C, 16–20 h
Experimental: as §1, §2

[5] = tested on: A. baumannii ATCC19606; test: MIC, broth dilution, standard strain; settings: broth dilution (CLSI), MHB, 37 °C, 16–20 h
Experimental: as §1, §2

[6] = tested on: E. faecium ATCC29212; test: MIC, broth dilution, standard strain; settings: broth dilution (CLSI), MHB, 37 °C, 16–20 h
Experimental: as §1, §2

[7] = tested on: P. aeruginosa ATCC27853; test: MIC, broth dilution, standard strain; settings: broth dilution (CLSI), MHB, 37 °C, 16–20 h
Experimental: as §1, §2

[8] = tested on: E. coli ATCC35218; test: MIC, broth dilution, standard strain; settings: broth dilution (CLSI), MHB, 5 × 10^5 CFU/mL, 37 °C, 16–20 h, OD630, repeated at least three times
Experimental: as §1, §2

[9] = tested on: standard ESKAPE strains; settings: broth dilution (CLSI), MHB, 37 °C, 16–20 h; range over all standard strains
Experimental: The ESKAPE pathogens represent the main threat to public health concerning antimicrobial resistance. Therefore, we first evaluated the antimicrobial activities of Ctriporin and its analogs against the standard ESKAPE strains. The minimum inhibitory concentration (MIC) was chosen as the index for the evaluation of each peptide’s activity. […] Note that the MICs of CM4 and CM7 are 4–32 and 8–32 μg/mL, respectively, indicating the existence of significant bacterial species deviations for the antimicrobial activity of these peptides. In addition, the replacement of specific residues, especially Pro^7, may harm the antimicrobial activities of the peptide.
as §1, §2

[10] = tested on: clinical isolates of CRE and multidrug-resistant (MDR) A. baumannii; settings: broth dilution (CLSI), MHB
Experimental: To further evaluate the antimicrobial potential of CM5 and CM6, the MICs of these two peptides, as well as the parent peptide Ctriporin, were determined against clinical antibiotic-resistant isolates of ESKAPE strains. […] Note that CRE and MDR A. baumannii are listed at the top of the pathogens threatening public health. Compared with the parent peptide Ctriporin, eight to sixteen times improvement in terms of antimicrobial activity was obtained through our peptide design strategy.
as §2

[11] = tested on: S. epidermidis 9092; test: MIC, broth dilution, clinical isolate; settings: MRSE clinical isolate; broth dilution (CLSI), MHB, 5 × 10^5 CFU/mL, 37 °C, 16–20 h, OD630
Experimental: as §1, §2

[12] = tested on: S. aureus 891; test: MIC, broth dilution, clinical isolate; settings: MRSA clinical isolate; broth dilution (CLSI), MHB, 5 × 10^5 CFU/mL, 37 °C, 16–20 h, OD630
Experimental: as §1, §2

[13] = tested on: E. coli 2687; test: MIC, broth dilution, clinical isolate; settings: ESBL clinical isolate; broth dilution (CLSI), MHB, 5 × 10^5 CFU/mL, 37 °C, 16–20 h, OD630
Experimental: as §1, §2

[14] = tested on: S. capitis 3255; test: MIC, broth dilution, clinical isolate; settings: MRSC clinical isolate; broth dilution (CLSI), MHB, 5 × 10^5 CFU/mL, 37 °C, 16–20 h, OD630
Experimental: as §1, §2

[15] = tested on: A. baumannii 19295; test: MIC, broth dilution, clinical isolate; settings: CRE/MDR clinical isolate; broth dilution (CLSI), MHB, 5 × 10^5 CFU/mL, 37 °C, 16–20 h, OD630
Experimental: as §1, §2

[16] = tested on: A. baumannii 19462; test: MIC, broth dilution, clinical isolate; settings: CRE/MDR clinical isolate; broth dilution (CLSI), MHB, 5 × 10^5 CFU/mL, 37 °C, 16–20 h, OD630
Experimental: as §1, §2

[17] = tested on: P. aeruginosa 9014; test: MIC, broth dilution, clinical isolate; settings: CRE/MDR clinical isolate; broth dilution (CLSI), MHB, 5 × 10^5 CFU/mL, 37 °C, 16–20 h, OD630
Experimental: as §1, §2

[18] = tested on: K. pneumoniae 9126; test: MIC, broth dilution, clinical isolate; settings: CRE clinical isolate; broth dilution (CLSI), MHB, 5 × 10^5 CFU/mL, 37 °C, 16–20 h, OD630
Experimental: as §1, §2

[19] = tested on: E. coli 2678; test: MIC, broth dilution, clinical isolate; settings: ESBL clinical isolate; broth dilution (CLSI), MHB, 5 × 10^5 CFU/mL, 37 °C, 16–20 h, OD630
Experimental: as §1, §2

[20] = tested on: E. faecium 898; test: MIC, broth dilution, clinical isolate; settings: MDR clinical isolate; broth dilution (CLSI), MHB, 5 × 10^5 CFU/mL, 37 °C, 16–20 h, OD630
Experimental: as §1, §2

[21] = tested on: S. aureus 9124; test: MIC, broth dilution, clinical isolate; settings: MRSA clinical isolate; broth dilution (CLSI), MHB, 5 × 10^5 CFU/mL, 37 °C, 16–20 h, OD630
Experimental: as §1, §2

[22] = tested on: A. baumannii 19618; test: MIC, broth dilution, clinical isolate; settings: CRE/MDR clinical isolate; broth dilution (CLSI), MHB, 5 × 10^5 CFU/mL, 37 °C, 16–20 h, OD630
Experimental: as §1, §2

[23] = tested on: S. epidermidis 6943; test: MIC, broth dilution, clinical isolate; settings: MRSE clinical isolate; broth dilution (CLSI), MHB, 5 × 10^5 CFU/mL, 37 °C, 16–20 h, OD630
Experimental: as §1, §2

[24] = tested on: human red blood cells (hRBC); test: Hemolytic activity determination; settings: 2% (v/v) hRBC, 37 °C, 1 h; for curve of hemolysis% vs. peptide concentration (Figure 2): 0–512 μg/mL peptide, compared in words; for Hemolysis% at 256 μg/mL: 256 μg/mL peptide, OD540, 1% Triton X-100 = 100%, average ± standard error of three independent experiments
Experimental: Figure 2 Hemolytic activities of Ctriporin and its analogs against human red blood cells (hRBC). Hemolytic activities of Ctriporin (solid circle), CM1 (open circle), CM2 (open square), CM3 (upward triangle), CM4 (downward triangle), CM5 (half solid circle), CM6 (half solid square), and CM7 (half solid triangle), were measured against 2% (v/v) human red blood cells. The peptide concentrations are 0, 2, 4, 8, 16, 32, 64, 128, 256, and 512 μg/mL. The cells treated with 1% Triton X-100 were treated as 100% hemolysis. All experiments were repeated three times, and the data shown are the average ± standard error.
The hemolytic activities of the peptides were determined against human red blood cells (hRBCs). As described, sodium citrate-anticoagulated hRBCs were washed three times with 0.9% sodium chloride and diluted to a final concentration of 4% (v/v). Then, an equal volume of hRBC solutions was mixed with an equal volume of each peptide in a series of concentrations (0, 2, 4, 8, 16, 32, 64, 128, 256, and 512 μg/mL). After co-incubation at 37 °C for 1 h, the degree of hemolysis of the peptides was determined by detecting the release of hemoglobin from the damaged hRBCs by measuring the optical density at 540 nm (OD540). hRBCs in 0.9% sodium chloride and 1% Triton X-100 were considered 0% and 100% hemolysis, respectively. The results shown are the average ± standard error of data derived from three independent experiments. The percent hemolysis was calculated according to the following equation [53, 54]:Hemolysis (%) = 100 × (Asample − Ablank)/(Apositive − Ablank)

[25] = 5 × 10^5 CFU/mL, OD630, repeated at least three times

| Structure (SMILES) | MICs [1, 25] | MICs [2] | MICs [3, 25] | MICs [4, 25] | MICs [5, 25] | MICs [6, 25] | MICs [7, 25] | MICs [8] | MICs against the ESKAPE pathogens (range over the standard strains of Table 2) [9] | curve of hemolysis% vs. peptide concentration (Figure 2) [24] | Hemolysis% at 256 μg/mL [24] | further results |
| --- | --- | --- | --- | --- | --- | --- | --- | --- | --- | --- | --- | --- |
| CC[C@H](C)[C@H](NC(=O)[C@H](C)NC(=O)[C@H](CCCCN)NC(=O)[C@@H]1CCCN1C(=O)[C@@H](NC(=O)[C@H](CC(C)C)NC(=O)[C@H](CCCCN)NC(=O)[C@H](Cc1c[nH]c2ccccc12)NC(=O)[C@H](CC(C)C)NC(=O)[C@@H](N)Cc1ccccc1)[C@@H](C)CC)C(=O)N[C@@H](CCCCN)C(=O)N[C@@H](CCCCN)C(=O)N[C@H](C(=O)N[C@@H](CCCCN)C(=O)N[C@@H](CO)C(=O)N[C@@H](CC(C)C)C(=O)N[C@H](C(=O)N[C@@H](CCCCN)C(=O)N[C@@H](CCCCN)C(N)=O)[C@@H](C)CC)C(C)C [CM5] (H-FLWKLIPKAIKKVKSLIKK-NH2) | 4 µg/mL | 8 µg/mL | 4 µg/mL | 8 µg/mL | 2 µg/mL | 8 µg/mL | 4 µg/mL | 4 µg/mL | 2 to 8 µg/mL | decreased dramatically compared with Ctriporin | 9.8 ± 0.6% | MIC values against clinical isolates of CRE and MDR A. baumannii [10]: 2 µg/mL; MICs [11]: 4 µg/mL; MICs [12]: 4 µg/mL; MICs [13]: 8 µg/mL; MICs [14]: 2 µg/mL; MICs [15]: 2 µg/mL; MICs [16]: 2 µg/mL; MICs [17]: 8 µg/mL; MICs [18]: 16 µg/mL; MICs [19]: 8 µg/mL; MICs [20]: 4 µg/mL; MICs [21]: 8 µg/mL; MICs [22]: 2 µg/mL; MICs [23]: 4 µg/mL |
| CC[C@H](C)[C@H](NC(=O)[C@H](C)NC(=O)[C@H](CCCCN)NC(=O)[C@H](CCCCN)NC(=O)[C@@H](NC(=O)[C@H](CC(C)C)NC(=O)[C@H](CCCCN)NC(=O)[C@H](Cc1c[nH]c2ccccc12)NC(=O)[C@H](CC(C)C)NC(=O)[C@@H](N)Cc1ccccc1)[C@@H](C)CC)C(=O)N[C@@H](CCCCN)C(=O)N[C@@H](CCCCN)C(=O)N[C@H](C(=O)N[C@@H](CCCCN)C(=O)N[C@@H](CCCCN)C(=O)N[C@@H](CC(C)C)C(=O)N[C@H](C(=O)N[C@@H](CCCCN)C(=O)N[C@@H](CCCCN)C(N)=O)[C@@H](C)CC)C(C)C [CM7] (H-FLWKLIKKAIKKVKKLIKK-NH2; N-terminus assumed) | 32 µg/mL | 32 µg/mL | 32 µg/mL | 32 µg/mL | 8 µg/mL | 32 µg/mL | 8 µg/mL | 16 µg/mL | 8 to 32 µg/mL | positions closely to those of CM3 | 57.5 ± 9.8% | MICs ([1]; value in parentheses): 13.6 µM; MICs ([3]; value in parentheses): 13.6 µM; MICs ([4]; value in parentheses): 13.6 µM; MICs ([5]; value in parentheses): 3.4 µM; MICs ([6]; value in parentheses): 13.6 µM; MICs ([7]; value in parentheses): 3.4 µM |
